Assay results: patent US9415084B2, “Treatment of leaky or damaged tight junctions and enhancing extracellular matrix” (Arch Biosurgery, Inc., priority 2007, dated 2016)
Several values for one entry are separate records, joined by “and”; a condition that tells them apart may be missing. Equal entries are not always repeated.

Key:
[1] = system: spinal cord; assay: Hemostasis in a spinal cord injury (T2 hemisection); type: in vivo, rat; settings: adult rats, 20 μl of 1% solution
Method: Under an operating microscope, the second thoracic spinal cord segment (T2) was identified before performing a dorsal laminectomy in anesthetized adult rats. After opening the dura mater, a right hemisection was performed using a ceramic knife. Immediately after the cord hemisection 20 μl of 1% solution of RADA16-I (SEQ ID NO: 60) (NHS-1) was applied to the area of the cut for bleeding control. The controls received a saline treatment. The animals were allowed to survive for up to 8 weeks as part of another experiment. The spinal environment and the brain environment were investigated for similarities or differences. Secondary damage caused by surgery can be reduced by quickly bringing bleeding under control. After laminectomy and removal of the dura, the spinal cord was hemisected at T2, from the dorsal to ventral aspect and treated (N=5) with 20 μl of 1% NHS-1. […] In the saline controls (n=5) it took on average 163 seconds to stop bleeding (FIG. 3a).

[2] = system: femoral artery; assay: Hemostasis in a high pressure femoral artery wound; type: in vivo, rat; settings: two cases, data not shown
Method: Rats were placed on their backs and the hind limb was extended to expose the medial aspect of the thigh (FIG. 4b). The skin was removed and the overlying muscles were cut to expose the femoral artery and sciatic nerve. The femoral artery was cut to produce a high pressure bleeder. With a 27 gauge needle, 200 μl of 1% RADA16-I (SEQ ID NO: 60) (NHS-1) solution was applied over the site of injury. In two cases powder was applied to the injury site which also worked. (Data not shown and was not included in the analysis). Controls were treated with a combination of saline and pressure with a […]. All animals were sacrificed four hours after the experiment. The femoral artery of 14 adult rats was surgically exposed, transected and then treated with 200 μl of 1% solution of NHS-1 or iced saline and packing. The treated cases (n=10) took about 10 seconds to achieve hemostasis (FIG. 3a). The controls (n=4) continued to bleed more than 6 minutes. The difference in times to achieve complete hemostasis was highly significant (Student t test p<0.0001).

[3] = system: liver; assay: Hemostasis in liver transverse cut severing a branch of the portal vein; type: in vivo; settings: rat liver transverse cut
Method: Rats were anesthetized and placed on their back and the abdomen was opened exposing the liver (FIG. 4c). The left lobe of the liver was cut using a scalpel in the rostral to caudal direction separating the two halves of the lobe in the sagittal cut. With a 27 gauge needle, 100 μl of 1% or 2%, of RADA16-I (SEQ ID NO: 60) (NHS-1), RADA-12 (NHS-2), or EAK-16 (TM-3) solution was applied to the site of injury. Livers of the controls were treated with saline or cauterized. Cauterization was performed using a thermal cautery device and was applied to entire surface of the injury. In another group of adult rats the same procedure was followed for the liver, which was cut transversely (FIG. 4d). With a 27 gauge needle, 400 μl of 1%, 2%, 3%, or 4% of NHS-1, or TM-3 solution was applied to the site of injury.
In the second experiment a major branch of the portal vein was severed while making a transverse cut in the left lobe to test NHS-1 in a high flow rate environment. Four concentrations of NHS-1 were tested (n=12) along with (n=4) control animals. 400 μl of 4% concentration NHS-1 was applied and bleeding stopped in 11 seconds. The test was successfully duplicated with 400 μl of both 3% and 2% NHS-1 solution; bleeding ceased in 10 and 10.3 seconds, respectively (FIG. 3d). When 400 μl of 1% NHS-1 was applied, bleeding continued for more than 60 seconds (FIG. 3d). The controls, however, bled for over 6 minutes. […] A significant difference was found between the NHS-1 treated and control groups using ANOVA.
The increased blood flow from the portal vein after making a transverse liver cut allowed the performance of another dose response experiment where various concentrations of NHS-1 (1% to 4%) and TM-3 (1% to 3%) could be compared with controls (FIG. 3d). All concentrations of NHS-1 were effective; however the higher blood pressure and flow rate after the transverse liver cut required a concentration of 2% or higher of NHS-1 to stop bleeding in less than 15 seconds.

[4] = system: liver; assay: Hemostasis in liver 4 mm punch biopsy; type: in vivo; settings: rats allowed to survive for up to 6 months after 3% treatment
Method: In another group of anesthetized adult rats, the liver was exposed and a 4 mm punch biopsy from the ventral aspect through the liver to the dorsal surface of the left liver lobe. The resulting core was removed from the liver and one of three treatments was applied. In one treatment, 200 μl of a 3% NHS-1 solution was applied to the site of injury. In one control saline was applied to the site of injury. In a second control, the injury surface was cauterized. The superficial material was then wiped clear of the injury site. […]
In the third experiment using adult rats (n=45) 4 mm holes were punched through the left lateral lobe and then the area was treated with 3% NHS-1, saline or heat cautery to bring about hemostasis (FIG. 3b). […] In the heat cautery control group (n=15) cessation of bleeding took more than 60 seconds, inclusive of applying heat to cauterize the inside surface of the punch. […] Using ANOVA there was a significant difference between the 3% NHS-1 treatment and the controls (p<0.0001).

[5] = system: brain, lung, or liver; assay: Examination of treated animals for thrombi; type: in vivo
[6] = system: liver; settings: rat, in vivo
Method: (§1) In the brain and liver of anesthetized adult rats 1% or 2% of NHS-1 was injected immediately after making a cut and the treatment site was sampled. Samples were fixed in a mixture of 2% para-formaldehyde and 2.5% glutaraldehyde in 0.1M PB for 4 hours. The samples were washed in 0.1M PB buffer 10 min×3 at 4° C. and embedded in 2% agar. Agar blocks were post fixed in 1% osmium tetroxide for 2 hrs at 4° C. and then washed in buffer for 10 min×3 at 4° C. The sample blocks were dehydrated in ethanol infiltrated and embedded in pure epon with Lynx EM tissue processor. Ultra-thin 70 nm sections were cut (Reichert-Jung ultra cut) and collected on #200 mesh grids. Sections and grids were stained with uranyl acetate and lead citrate and examined under Philip EM208S transmission electron microscope.
Still looking for mechanism clues as well as further understanding of the relationship of the NHS-1 blood/tissue interface in both the brain and liver, the treated tissues were examined under the transmission electron microscope (TEM), to determine how the red blood cells (RBCs), platelets, tissue and the ECM interact with the material.
A 1% NHS-1 solution was applied to a liver wound and immediately harvested the tissue.

[7] = system: brain; settings: rat, in vivo
Method: as §1

n-RADARADARADARADA-c [NHS-1]
time to hemostasis [1]: 7.6 s
hemostasis with powder applied to the injury site [2]: also worked
hemostasis after removing the excess assembled material ([3]; 2%, 3% and 4% concentration): complete hemostasis was maintained
time to hemostasis ([3]; 400 μl of 2% solution): 10.3 s and 10.3 ± 0.5 s
time to hemostasis ([3]; 400 μl of 3% solution): 10 s and 10.0 ± 1.0 s
time to hemostasis ([3]; 400 μl of 4% solution): 11 s and 11.0 ± 1.0 s
concentration required for complete hemostasis in less than 15 seconds ([3]; higher blood pressure/flow rate): ≥ 2%
hemostatic effectiveness over the concentrations tested ([3]; NHS-1 1% to 4%, TM-3 1% to 3%): effective
effect on the tissues in surviving animals [4]: no detrimental effect on the tissues
thrombi in the brain, lung, or liver [5]: no evidence of thrombi
lysing of RBCs at the interface [6]: no evidence of lysing
platelet aggregation at the blood/NHS-1 interface [6]: no evidence of platelet aggregation
lysing of RBCs at the edges of the assembled material [7]: no evidence of lysing
platelet aggregation in the assembled material [7]: no evidence of platelet aggregation
